Test results from ChEMBL document CHEMBL4396896, “N-Aminoacyl and N-hydroxyacyl derivatives of diosgenyl 2-amino-2-deoxy-β-d-glucopyranoside: Synthesis, antimicrobial and hemolytic activities” (Bioorg Med Chem, 2019).
≈ marks a conversion by molar mass, not a printed value.

Columns and labels:
Erythrocyte [1] = experiment: Haemolytic activity in human erythrocytes assessed as hemoglobin release at 8 to 64 mg/L incubated for 1 hr by microplate spectrophotometry; format: ADME, cell-based
Enterococcus faecalis = experiment: Antibacterial activity against Enterococcus faecalis ATCC 29212 incubated in MHB II under aerobic condition for 18 hrs using initial inoculum of 5 x 10^5 CFU/ml by serial dilution method; format: functional; conditions: ATCC 29212, 18 h
Candida albicans = experiment: Antifungal activity against Candida albicans ATCC 10231 incubated in sabouraud liquid medium under aerobic condition for 48 hrs using initial inoculum of 10^3 CFU/ml by serial dilution method; format: functional; conditions: ATCC 10231, 48 h
[2] = Haemolytic activity in human erythrocytes assessed as haemolytic index by measuring hemoglobin release at 128 mg/L incubated for 1 hr by microplate spectrophotometry; format: ADME, cell-based, Erythrocyte; conditions: read-out: HI
Yarrowia lipolytica = experiment: Antifungal activity against Candida lipolytica PCM 2680 incubated in sabouraud liquid medium under aerobic condition for 48 hrs using initial inoculum of 10^3 CFU/ml by serial dilution method; format: functional; conditions: PCM 2680, 48 h
Proteus mirabilis = experiment: Antibacterial activity against Proteus mirabilis PCM 543 incubated in MHB II under aerobic condition for 18 hrs using initial inoculum of 5 x 10^5 CFU/ml by serial dilution method; format: functional; conditions: PCM 543, 18 h
Escherichia coli = experiment: Antibacterial activity against Escherichia coli ATCC 25922 incubated in MHB II under aerobic condition for 18 hrs using initial inoculum of 5 x 10^5 CFU/ml by serial dilution method; format: functional; conditions: ATCC 25922, 18 h
Bacillus subtilis = experiment: Antibacterial activity against Bacillus subtilis ATCC 6633 incubated in MHB II under aerobic condition for 18 hrs using initial inoculum of 5 x 10^5 CFU/ml by serial dilution method; format: functional; conditions: ATCC 6633, 18 h
[3] = test system: Staphylococcus epidermidis; experiment: Antibacterial activity against Staphylococcus epidermidis PCM 2118 incubated in MHB II under aerobic condition for 18 hrs using initial inoculum of 5 x 10^5 CFU/ml by serial dilution method; format: functional; conditions: PCM 2118, 18 h
Pseudomonas aeruginosa = experiment: Antibacterial activity against Pseudomonas aeruginosa ATCC 9027 incubated in MHB II under aerobic condition for 18 hrs using initial inoculum of 5 x 10^5 CFU/ml by serial dilution method; format: functional; conditions: ATCC 9027, 18 h
Klebsiella pneumoniae = experiment: Antibacterial activity against Klebsiella pneumoniae ATCC 700603 incubated in MHB II under aerobic condition for 18 hrs using initial inoculum of 5 x 10^5 CFU/ml by serial dilution method; format: functional; conditions: ATCC 700603, 18 h
Staphylococcus aureus = experiment: Antibacterial activity against Staphylococcus aureus ATCC 25923 incubated in MHB II under aerobic condition for 18 hrs using initial inoculum of 5 x 10^5 CFU/ml by serial dilution method; format: functional; conditions: ATCC 25923, 18 h
[4] = Haemolytic activity in human erythrocytes assessed as haemolytic index by measuring hemoglobin release at 32 mg/L incubated for 1 hr by microplate spectrophotometry; format: ADME, cell-based, Erythrocyte; conditions: read-out: HI
[5] = Haemolytic activity in human erythrocytes assessed as haemolytic index by measuring hemoglobin release at 64 mg/L incubated for 1 hr by microplate spectrophotometry; format: ADME, cell-based, Erythrocyte; conditions: read-out: HI
Erythrocyte [6] = experiment: Haemolytic activity in human erythrocytes assessed as haemolytic index by measuring hemoglobin release at 0.5 to 128 mg/L incubated for 1 hr by microplate spectrophotometry relative to control; format: ADME, cell-based; conditions: erythrocyte, 1 h

Row | SMILES | Activity (Erythrocyte [1]) | MIC (Enterococcus faecalis) [µg/mL] | MIC (Candida albicans) [µg/mL] | hemolysis at 1 h, 128 mg/L [2] [%] | MIC (Yarrowia lipolytica) [µg/mL] | MIC (Proteus mirabilis) [µg/mL] | MIC (Escherichia coli) [µg/mL] | MIC (Bacillus subtilis) [µg/mL] | MIC [3] [µg/mL] | MIC (Pseudomonas aeruginosa) [µg/mL] | MIC (Klebsiella pneumoniae) [µg/mL] | MIC (Staphylococcus aureus) [µg/mL] | hemolysis at 1 h, 32 mg/L [4] [%] | hemolysis at 1 h, 64 mg/L [5] [%] | Activity (Erythrocyte [6])
1 | C[C@@H]1CC[C@@]2(OC1)O[C@H]1C[C@H]3[C@@H]4CC=C5C[C@@H](O[C@@H]6O[C@H](CO)[C@@H](O)[C@H](O)[C@H]6NC(=O)CN)CC[C@]5(C)[C@H]4CC[C@]3(C)[C@H]1[C@@H]2C | Toxic | 64 (≈ 101 µM) | 64 (≈ 101 µM) | 16 | 64 (≈ 101 µM) | > 128 | > 128 | 64 (≈ 101 µM) | 64 (≈ 101 µM) | > 128 | > 128 | 64 (≈ 101 µM) | – | – | –
2 | C[C@@H]1CC[C@@]2(OC1)O[C@H]1C[C@H]3[C@@H]4CC=C5C[C@@H](O[C@@H]6O[C@H](CO)[C@@H](O)[C@H](O)[C@H]6NC(=O)[C@@H]6CCCN6)CC[C@]5(C)[C@H]4CC[C@]3(C)[C@H]1[C@@H]2C | – | 4 (≈ 5.94 µM) | – | 100 | – | > 128 | > 128 | 8 (≈ 11.9 µM) | 4 (≈ 5.94 µM) | > 128 | > 128 | 4 (≈ 5.94 µM) | 46 | 100 | –
3 | C[C@@H]1CC[C@@]2(OC1)O[C@H]1C[C@H]3[C@@H]4CC=C5C[C@@H](O[C@@H]6O[C@H](CO)[C@@H](O)[C@H](O)[C@H]6N)CC[C@]5(C)[C@H]4CC[C@]3(C)[C@H]1[C@@H]2C.Cl | – | 16 | 2 | – | 1 | – | – | 8 | 16 | – | – | 16 | – | – | Non-Toxic
